Bridge positions count the residues as written; N and C are the ends. Ends that are not written are not given here.
Columns and labels:
[1] = system: BNL.1MEA.7.R.1 cells; test: Mouse tumor study: BNL.1MEA.7.R.1 cells injected into right leg, intraperitoneal Tv1; type: in vivo, Balb/c female mice
Procedure: Balb/c female mice (20-35 g) were used for mouse studies. Animals were maintained on standard animal diet, in a controlled room (22±1° C. @ 35-50% RH) for a week prior to experiments. Animals were randomly divided into three groups: negative control (only PBS), high-dose and low-dose ZCD groups. Each group had five mice under sterile condition. On the day nine, the BNL.1MEA.7.R.1 cells (5 million) were injected into the right leg of each animal and allowed the tumors to grow. After two weeks the animals were checked for tumor growth and the sizes of tumors were recorded using calipers. The treatment was started after finding tumors in all groups.
The concentration of the Tv1 formulations was prepared at 0.08 mg/kg body weight (low dose) and 0.80 mg/kg body weight (high dose) for the intraperitoneal injections. Control group of animals received PBS. The drug administrations were continued for seven days and then further after a five day interval treatment was continued for another eight days and tumor sizes were measured every day.
In the high-dose group, the tumor volumes were 286.08±39.9 mm^3 at the beginning of the treatment and were 434.28±286 mm^3 after the last day which is an increase of only 52%.

[2] = system: cell lines IMEA7 and BNL.CL2; test: In vitro cell viability, immunoblotting and wound healing assays on liver cancer cells; type: cell-based
Procedure: A novel teretoxin, Tv1 (TR(I/L)[…] (SEQ ID NO: 1)) from a terebrid snail, terebrid variegata was structurally identified and found to be biologically active. […] Tv1 was analyzed in cell viability, immunoblotting, and wound healing assays to characterize its function on liver cancer cells. […] Structural characterization of Terebra variegata peptide toxin Tv1 was accomplished using a total venom sample of 4 ng, an amount that would previously make characterization of venom components almost impossible.

[3] = system: Nereis virens (polychaete worms); test: Bioactivity assay on polychaete worms; type: in vivo
Procedure: To determine if synthetic Tv1 is biologically active, the peptide was injected into polychaete worms, which are the natural prey of terebrid snails. […] Inhibition of nicotinic receptors at the neuromuscular junction can result in paralysis.
Nereis virens (polychaete worms) (less than 3.5 g) were maintained at 4° C. in salt water prior to injection. Worms were laid on a Styrofoam block and injected with an insulin syringe. A modified needle cap was used to maintain a consistent 1.5 mm depth of needle puncture. Worms were injected between the 5th and 7th segments on the ventral anterior end with the aim of targeting the ventral nerve cord. Control worms were injected with 12 μl of 0.9% normal saline solution (NSS). Lyopholized samples of Tv1 toxin were resuspended in NSS and diluted to a concentration of 20 μM which was confirmed using a ThermoScientific Nanodrop 2000c spectrophotometer. At least three worms were used for each trial—one saline control and two injected with Tv1 toxin for a total of three trials. After injection, the worms were transferred to side-by-side containers filled with room temperature salt water. The worm movements were then recorded by video in order to evaluate the effects of the toxin over a period of at least 3.5 hours. Varying temperature elicits different phenotypic responses from N. virens: water at 4° C. has an anesthetizing effect, while room temperature prompts a vigorous response. Taking the worms from 4° C. water and immersing them in room temperature water (25° C.) immediately after injection stimulates an active response from the worms, making it easier to recognize paralytic (or partially paralytic) effects induced by a novel toxin in the first minutes after injection. Worms were observed every other day for two weeks after injection. […] Each video was analyzed and annotated […] by each observer. Observations for each worm began at the time of injection. The numerical results of the two independent viewings were averaged together if results were similar, if two viewers disagreed, a third observer was employed to review the disputed section of video. Results of relative activity vs. time were plotted to quantify the phenotypic effects of the toxin and saline injection on N. virens.

| Substance | effect on growth of tumor ([1]; both low and high doses) | tumor volume after the last day ([1]; high dose 0.80 mg/kg body weight, intraperitoneal, after the last day) [mm^3] | tumor volume at the beginning of the treatment ([1]; high dose 0.80 mg/kg body weight, intraperitoneal, beginning of treatment) [mm^3] | increase of tumor volume ([1]; high dose 0.80 mg/kg, beginning to last day (negative control 418%)) [%] | average tumor volume at the beginning of the treatment ([1]; low dose 0.08 mg/kg body weight, intraperitoneal, day one) [mm^3] | average tumor volume at the end of treatment ([1]; low dose 0.08 mg/kg body weight, intraperitoneal, end of treatment) [mm^3] | increase of average tumor volume ([1]; low dose 0.08 mg/kg, day one to end of treatment (negative control 418%)) [%] | selectivity tumor cell versus normal cells in vivo ([1]; mice models expressing IMEA7 tumor cells subcutaneously) | body weights throughout the treatment period ([1]; monitored throughout treatment) | selectivity tumor cell versus normal cells in vitro ([2]; cell lines IMEA7 and BNL.CL2) | death of normal versus cancer cells compared to sorafenib and doxorubicin ([2]; cell viability, immunoblotting, wound healing assays) | % Time spent, activity at 0 ([3]; 20 μM injected, activity at 0) [%] | % Time spent, activity between 0 and 1 ([3]; 20 μM injected, activity between 0 and 1) [%] | % Time spent, activity between 1 and 2 ([3]; 20 μM injected, activity between 1 and 2) [%] | % Time spent, activity between 2 and 3 ([3]; 20 μM injected, activity between 2 and 3) [%] | phenotypic effect of injection into worms ([3]; injections of 20 μM) |
| --- | --- | --- | --- | --- | --- | --- | --- | --- | --- | --- | --- | --- | --- | --- | --- | --- |
| TR(I/L)CCGCYWNGSKDVCSQSCC [Tv1, novel teretoxin from terebrid snail Terebra variegata, chemically synthesized; Ile or Leu at position 3] | effective in significantly decreasing the growth of tumor | 434.28±286 | 286.08±39.9 | 52 | 180±36.74 | 485±175.07 | 170 | selectively targets tumor cell versus normal cells | not significantly changed | selectively targets tumor cell versus normal cells | prevented the death of normal versus cancer cells at high instance | 0.995 | 74.47 | 19.98 | 4.55 | – |
| TRICCGCYWNGSKDVCSQSCC (disulfide 7-16, 4-20, 5-21; listed as Terebra variegata) [Tv1 (Ile), Tv1 peptide with Ile at the third position] | – | – | – | – | – | – | – | – | – | – | – | – | – | – | – | partial paralysis |

— patent US9610319B2, “Method of treating cancer” (Research Foundation of the City University of New York, priority 2014, dated 2017)
